The target in one assay is T1, Fatty acid synthase (Plasmodium falciparum, UniProt Q965D7).
T1 sequence (Q965D7 whole entry): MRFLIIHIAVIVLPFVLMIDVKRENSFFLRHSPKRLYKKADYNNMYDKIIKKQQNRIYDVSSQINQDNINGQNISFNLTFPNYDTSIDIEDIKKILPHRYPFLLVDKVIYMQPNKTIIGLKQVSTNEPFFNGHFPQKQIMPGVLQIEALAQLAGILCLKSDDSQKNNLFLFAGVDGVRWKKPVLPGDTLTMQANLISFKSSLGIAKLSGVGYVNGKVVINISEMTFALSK
As to the kind of experiment: Inhibition of FabZ.

For assay [1], the target named is T2, Enoyl-acyl-carrier protein reductase (Plasmodium falciparum, UniProt Q965D5).
T2 sequence (Q965D5 whole entry): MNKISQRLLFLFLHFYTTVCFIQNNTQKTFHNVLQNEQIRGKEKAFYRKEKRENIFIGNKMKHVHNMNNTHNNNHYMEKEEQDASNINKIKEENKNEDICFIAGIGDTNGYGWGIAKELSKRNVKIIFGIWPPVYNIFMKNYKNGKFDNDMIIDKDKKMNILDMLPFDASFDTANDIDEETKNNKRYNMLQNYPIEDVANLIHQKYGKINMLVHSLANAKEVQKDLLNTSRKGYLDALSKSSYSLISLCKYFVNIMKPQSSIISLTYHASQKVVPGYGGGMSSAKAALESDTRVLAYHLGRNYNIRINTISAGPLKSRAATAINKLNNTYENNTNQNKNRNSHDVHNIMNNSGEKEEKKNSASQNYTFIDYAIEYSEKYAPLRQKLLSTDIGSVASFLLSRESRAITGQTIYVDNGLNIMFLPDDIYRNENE
The assay is described as follows: Inhibition of FabI.

Assay [2] concerns the target T3, 3-oxoacyl-acyl-carrier protein reductase (Plasmodium falciparum, UniProt Q965D6).
T3 sequence (Q965D6 whole entry): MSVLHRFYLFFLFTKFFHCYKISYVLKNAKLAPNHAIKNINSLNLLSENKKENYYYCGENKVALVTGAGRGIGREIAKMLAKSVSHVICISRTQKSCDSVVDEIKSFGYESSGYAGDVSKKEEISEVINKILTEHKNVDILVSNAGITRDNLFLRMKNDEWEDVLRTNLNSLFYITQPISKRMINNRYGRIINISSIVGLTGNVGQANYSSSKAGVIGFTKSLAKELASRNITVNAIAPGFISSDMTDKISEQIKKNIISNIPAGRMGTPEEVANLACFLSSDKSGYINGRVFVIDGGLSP
The assay is described as follows: Inhibition of FabG.

The subject of assay [3] is Plasmodium falciparum. As to the kind of experiment: Antiplasmodial activity against chloroquine-sensitive Plasmodium falciparum NF54. The assay is classed as functional, organism-based.
Assay [4] has as its system Plasmodium falciparum. As to the kind of experiment: Antiplasmodial activity against chloroquine-resistant Plasmodium falciparum K1. The assay is classed as functional, organism-based.
For assay [5], the target named is T3, 3-oxoacyl-acyl-carrier protein reductase. The assay is described as follows: Inhibition of FabG in presence of NADPH.
Assay [6] shares this target. As to the kind of experiment: Inhibition of FabG in presence of acetoacetyl-CoA.

As usually defined, the IC50 is the point on the concentration scale where inhibition reaches its midpoint. Higher therefore signals weaker potency. As usually defined, the Ki is a dissociation constant, usually derived from enzyme kinetics or from competition with a known ligand. Regarding `O=C(O[C@@H]1Cc2c(O)cc(O)cc2O[C@H]1c1ccc(O)c(O)c1)c1cc(O)c(O)c(O)c1` [(-)-CATECHINGALLATE], the IC50 is 0.4 µM at Fatty acid synthase; 0.3 µM in assay [1]; 1 µM in assay [2]; 3.2 µM with Plasmodium falciparum [3]; 0.4 µM in the assay on Plasmodium falciparum [4]. For the same compound, the Ki at Fatty acid synthase was 2.8 µM; in assay [1] it was 0.04 µM; in assay [5] it was 2.8 µM; in assay [6] it was 6.4 µM.
Regarding `O=c1cc(-c2ccc(O)c(O)c2)oc2cc(O)cc(O)c12` [LUTEOLIN], the IC50 stood at 5 µM against Fatty acid synthase; 2 µM in assay [1]; 4 µM in assay [2]; 10.7 µM with Plasmodium falciparum [3]; 9.6 µM with Plasmodium falciparum [4]. Besides, the inhibition constant Ki on Fatty acid synthase was 11.5 µM; in assay [1], 2.1 µM; in assay [5] it was 0.8 µM; in assay [6] it was 1.8 µM.
As for `O=c1c(O)c(-c2ccc(O)cc2O)oc2cc(O)cc(O)c12` [MORIN], the IC50 at Fatty acid synthase amounted to 8 µM; in assay [1], 5 µM; in assay [2] it was 2.3 µM; in the assay with Plasmodium falciparum [3], 110 µM; with Plasmodium falciparum [4], 16.1 µM.
Take `O=c1c(O)c(-c2cc(O)c(O)c(O)c2)oc2cc(O)cc(O)c12` [MYRICETIN]: the concentration for half-maximal inhibition (IC50) against Fatty acid synthase was found to be 2 µM; in assay [1], 0.4 µM; in assay [2], 14 µM; in the assay with Plasmodium falciparum [3], 57.3 µM; with Plasmodium falciparum [4], 12.9 µM.
As to `O=c1c(O)c(-c2ccc(O)c(O)c2)oc2cc(O)cc(O)c12` [QUERCETIN], the IC50 against Fatty acid synthase was determined as 1.5 µM; in assay [1] it was 1.5 µM; in assay [2], 5.4 µM; in the assay on Plasmodium falciparum [3], 10 µM; in the assay on Plasmodium falciparum [4], 8.9 µM.

Values taken from ChEMBL document CHEMBL1148505, “Inhibition of Plasmodium falciparum fatty acid biosynthesis: evaluation of FabG, FabZ, and FabI as drug targets for flavonoids” (J Med Chem, 2006).
